According to patent US11591311B2, “3-oxo-6-heteroaryl-2-phenyl-2,3-dihydropyridazine-4-carboxamides” (priority 2017, dated 2023):

Columns and labels:
AHR [1] = biological target: T1, AHR (Homo sapiens, UniProt P35869); experiment: In vitro assay 3: AHR-regulated CYP1A1 expression in human cell line (U937, qPCR); type: cell-based; conditions: human monocytic U937 cells, CYP1A1 expression induced with 200 μM KA, 6 hours, quantitative PCR; read-out: Assay 3: Hum CYP1A1 Antagonism IC50
T1 construct: U87 glioblastoma cells (ATCC) endogenously expressing AHR; host or cells: U87 glioblastoma cells, stably transfected with DRE-firefly luciferase and renilla reporter constructs
T1 sequence (P35869 11-848): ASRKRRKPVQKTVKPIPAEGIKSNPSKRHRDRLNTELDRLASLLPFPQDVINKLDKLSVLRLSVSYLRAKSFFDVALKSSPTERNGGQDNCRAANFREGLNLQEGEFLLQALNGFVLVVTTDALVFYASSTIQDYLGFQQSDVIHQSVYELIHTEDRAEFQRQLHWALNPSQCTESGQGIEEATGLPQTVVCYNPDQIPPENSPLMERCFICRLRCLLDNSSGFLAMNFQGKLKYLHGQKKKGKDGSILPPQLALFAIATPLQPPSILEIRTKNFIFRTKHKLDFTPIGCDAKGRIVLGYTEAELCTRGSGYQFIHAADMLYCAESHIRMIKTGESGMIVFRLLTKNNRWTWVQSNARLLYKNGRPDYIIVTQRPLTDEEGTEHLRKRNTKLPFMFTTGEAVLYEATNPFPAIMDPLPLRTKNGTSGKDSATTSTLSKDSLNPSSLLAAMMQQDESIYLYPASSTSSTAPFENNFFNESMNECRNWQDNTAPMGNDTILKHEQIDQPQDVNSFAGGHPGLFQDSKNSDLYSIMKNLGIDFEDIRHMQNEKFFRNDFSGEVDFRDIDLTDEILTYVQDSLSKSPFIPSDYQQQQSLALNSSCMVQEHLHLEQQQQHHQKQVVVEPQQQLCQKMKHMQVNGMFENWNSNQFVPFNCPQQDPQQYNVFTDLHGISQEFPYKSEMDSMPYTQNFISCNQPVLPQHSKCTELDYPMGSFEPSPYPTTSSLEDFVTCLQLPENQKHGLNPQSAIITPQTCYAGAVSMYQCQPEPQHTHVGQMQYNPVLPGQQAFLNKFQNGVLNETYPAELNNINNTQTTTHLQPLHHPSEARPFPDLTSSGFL
Protocol: In Vitro Assay 3: AHR-Regulated CYP1A1 Expression in Human Cell Line
To assess the AHR inhibitory activity of the substances described in this application, the ability thereof to antagonise ligand-induced AHR gene regulation in a dose-dependent manner was quantified. For this purpose, quantitative PCR analysis was used to determine expression of the AHR-regulated gene CYP1A1 in a human monocytic U937 cell line upon stimulation with 200 μM KA in the presence and absence of AHR inhibitor. […] CYP1A1 expression was induced with 200 μM KA (positive control) in the presence or absence of the substances for 6 hours. Human U937 cells were typically incubated with eight different concentrations of the substances (1 nM, 3 nM, 10 nM, 30 nM, 100 nM, 300 nM, 1 μM and 3 μM) and analyzed in duplicate on the same microtitre plate. […] Unstimulated cells were used as the negative control. Taqman probes for human CYP1A1 (Hs01054797_g1) and human HPRT (Hs02800695_m1) were used to analyze fold expression of CYP1A1 of HPRT. Quantitation was performed on a Taqman SDS7900HT.

AHR [2] = biological target: T1, AHR; experiment: In vitro assay 1: AHR-luc transactivation assay, antagonism in human cell line (U87 glioblastoma cells prestimulated with kynurenic acid); type: cell-based
Protocol: Transactivation Assay in Human Cell Line (In Vitro Assays 1 and 2)
Transactivation assays were carried out in U87 glioblastoma cells (ATCC) endogenously expressing AHR. In addition the cells were stably transfected with an AHR inducible firefly luciferase reporter gene construct that carried AHR-binding sites (DRE) in its promoter and a renilla reporter gene construct with constitutively active promoter. Kynurenic acid is an endogenous AHR activating ligand and was used to prestimulate test cells prior to testing the antagonistic properties of compounds.
In Vitro Assay 1: Antagonism in Human Cell Line
Cells in medium (tryptophan free RPMI, 1% FCS, 2 mM Glutamine) supplemented with 150 μM kynurenic acid were grown for 20 hours in absence (negative control) or presence of increasing concentrations of test compounds (typical dilutions: 72 pmol/L, 0.25 nmol/L, 0.89 nmol/L; 3.1 nmol/L, 11 nmol/L, 38 nmol/L, 130 nmol/L, 470 nmol/L, 1.6 μmol/L, 5.7 μmol/L and 20 μmol/L in duplicates). As positive inhibition control cells supplemented with 150 μM kynurenic acid were incubated in presence of 5 μM Staurosporin. Normalization was done by positive and negative controls.
Firefly luciferase and Renilla activity was determined by the DualGlo Luciferase Assay System (Promega, #2920). Renilla activity was used to assess toxic effects of compounds.

For O=C(N[C@H]1CCC[C@H]1O)c1cc(-c2ccc(C(F)(F)F)nc2)nn(-c2cccc(F)c2)c1=O [Example 8, 2-(3-Fluorophenyl)-N-[(1S,2R)-2-hydroxycyclopentyl]-3-oxo-6-[6-(trifluoromethyl)pyridin-3-yl]-2,3-dihydropyridazine-4-carboxamide], the IC50 (AHR [1]) was 10.3 nM and the IC50 (AHR [2]) was 6.28 nM.
C[C@@H](NC(=O)c1cc(-c2ccc(N(C)C)nc2)nn(-c2cccc(F)c2)c1=O)C(C)(C)O [Example 19, 6-[6-(Dimethylamino)pyridin-3-yl]-2-(3-fluorophenyl)-N-[(2R)-3-hydroxy-3-methylbutan-2-yl]-3-oxo-2,3-dihydropyridazine-4-carboxamide] showed an IC50 (AHR [1]) of 147 nM and an IC50 (AHR [2]) of 91.9 nM.
Compound C[C@@H](NC(=O)c1cc(-c2ccc(C(F)F)nc2)nn(-c2cccc(F)c2)c1=O)C(C)(C)O [Example 22, 6-[6-(Difluoromethyl)pyridin-3-yl]-2-(3-fluorophenyl)-N-[(2R)-3-hydroxy-3-methylbutan-2-yl]-3-oxo-2,3-dihydropyridazine-4-carboxamide] has an IC50 (AHR [1]) of 186 nM and an IC50 (AHR [2]) of 62.6 nM.
With C[C@@H](CO)NC(=O)c1cc(-c2ccc(C(F)(F)F)nc2)nn(-c2cc(F)cc(F)c2)c1=O [Example 1, 2-(3,5-Difluorophenyl)-N-[(25)-1-hydroxypropan-2-yl]-3-oxo-6-[6-(trifluoromethyl)pyridin-3-yl]-2,3-dihydropyridazine-4-carboxamide] the IC50 (AHR [1]) was 5.29 nM and the IC50 (AHR [2]) was 7.14 nM.
With C[C@H](NC(=O)c1cc(-c2ccc(C(F)(F)F)nc2)nn(-c2cccc(F)c2)c1=O)C(C)(C)O [Example 9, 2-(3-Fluorophenyl)-N-[(2S)-3-hydroxy-3-methylbutan-2-yl]-3-oxo-6-[6-(trifluoromethyl)pyridin-3-yl]-2,3-dihydropyridazine-4-carboxamide] the IC50 (AHR [1]) was 25.3 nM and the IC50 (AHR [2]) was 16.2 nM.
In the case of C[C@@H](CO)NC(=O)c1cc(-c2ccc(C(F)(F)F)nc2)nn(-c2ccccc2)c1=O [Example 5, N-[(2S)-1-Hydroxypropan-2-yl]-3-oxo-2-phenyl-6-[6-(trifluoromethyl)pyridin-3-yl]-2,3-dihydropyridazine-4-carboxamide], the IC50 (AHR [1]) is reported as 281 nM and the IC50 (AHR [2]) is reported as 163 nM.
With COc1ccc(-c2cc(C(=O)N[C@@H](C)CO)c(=O)n(-c3cccc(F)c3)n2)cn1 [Example 21, 2-(3-Fluorophenyl)-N-[(2S)-1-hydroxypropan-2-yl]-6-(6-methoxypyridin-3-yl)-3-oxo-2,3-dihydropyridazine-4-carboxamide] the IC50 (AHR [1]) was 440 nM and the IC50 (AHR [2]) was 128 nM.
Compound C[C@@H](NC(=O)c1cc(-c2ccc(C(F)(F)F)nc2)nn(-c2cccc(F)c2)c1=O)C(C)(C)O [Example 7, 2-(3-Fluorophenyl)-N-[(2R)-3-hydroxy-3-methylbutan-2-yl]-3-oxo-6-[6-(trifluoromethyl)pyridin-3-yl]-2,3-dihydropyridazine-4-carboxamide] has an IC50 (AHR [1]) of 48.1 nM and an IC50 (AHR [2]) of 25.8 nM.
Work on C[C@@H](CO)NC(=O)c1cc(-c2cnc(C(F)(F)F)nc2)nn(-c2cccc(F)c2)c1=O [Example 11, 2-(3-Fluorophenyl)-N-[(2S)-1-hydroxypropan-2-yl]-3-oxo-6-[2-(trifluoromethyl)pyrimidin-5-yl]-2,3-dihydropyridazine-4-carboxamide] yielded an IC50 (AHR [1]) of 326 nM and an IC50 (AHR [2]) of 495 nM.
C[C@@H](CO)NC(=O)c1cc(-c2ccc(C(F)F)nc2)nn(-c2cccc(F)c2)c1=O [Example 13, 6-[6-(Difluoromethyl)pyridin-3-yl]-2-(3-fluorophenyl)-N-[(2S)-1-hydroxypropan-2-yl]-3-oxo-2,3-dihydropyridazine-4-carboxamide] gave an IC50 (AHR [1]) of 198 nM and an IC50 (AHR [2]) of 157 nM.
C[C@@H](CO)NC(=O)c1cc(-c2ccc(C(F)(F)F)nc2)nn(-c2cccc(F)c2)c1=O [Example 18, 2-(3-Fluorophenyl)-N-[(2S)-1-hydroxypropan-2-yl]-3-oxo-6-[6-(trifluoromethyl)pyridin-3-yl]-2,3-dihydropyridazine-4-carboxamide] was tested, and the IC50 (AHR [1]) was 31.4 nM and the IC50 (AHR [2]) was 33.8 nM.
Compound C[C@@H](CO)NC(=O)c1cc(-c2ccc(C(F)(F)F)nc2)nn(-c2cccc(Cl)c2)c1=O [Example 4, 2-(3-Chlorophenyl)-N-[(2S)-1-hydroxypropan-2-yl]-3-oxo-6-[6-(trifluoromethyl)pyridin-3-yl]-2,3-dihydropyridazine-4-carboxamide] has an IC50 (AHR [1]) of 222 nM and an IC50 (AHR [2]) of 128 nM.
C[C@@H](CO)NC(=O)c1cc(-c2ccc(C(F)(F)F)nc2)nn(-c2cc(F)cc(Cl)c2)c1=O [Example 2, 2-(3-Chloro-5-fluorophenyl)-N-[(2S)-1-hydroxypropan-2-yl]-3-oxo-6-[6-(trifluoromethyl)pyridin-3-yl]-2,3-dihydropyridazine-4-carboxamide] showed an IC50 (AHR [1]) of 36.8 nM and an IC50 (AHR [2]) of 23.5 nM.
O=C(NC(CO)C1CCOC1)c1cc(-c2ccc(C(F)F)nc2)nn(-c2cccc(F)c2)c1=O (centres unmarked) [Example 36, 6-[6-(Difluoromethyl)pyridin-3-yl]-2-(3-fluorophenyl)-N-[2-hydroxy-1-(tetrahydrofuran-3-yl)ethyl]-3-oxo-2,3-dihydropyridazine-4-carboxamide] was tested, and the IC50 (AHR [2]) was 196 nM.
In the case of C[C@@H](CO)NC(=O)c1cc(-c2ccc(C(F)(F)F)cn2)nn(-c2cc(F)cc(F)c2)c1=O [Example 41, 2-(3,5-Difluorophenyl)-N-[(2S)-1-hydroxypropan-2-yl]-3-oxo-6-[5-(trifluoromethyl)pyridin-2-yl]-2,3-dihydropyridazine-4-carboxamide], the IC50 (AHR [2]) is reported as 96.5 nM.
Compound O=C(N[C@H](CO)C(F)(F)F)c1cc(-c2ccc(C(F)F)nc2)nn(-c2cccc(F)c2)c1=O [Example 28, 6-[6-(Difluoromethyl)pyridin-3-yl]-2-(3-fluorophenyl)-3-oxo-N-[(2R)-1,1,1-trifluoro-3-hydroxypropan-2-yl]-2,3-dihydropyridazine-4-carboxamide] has an IC50 (AHR [2]) of 6.65 nM.
CC(C)(O)CNC(=O)c1cc(-c2ccc(C(F)(F)F)nc2)nn(-c2cccc(F)c2)c1=O [Example 10, 2-(3-Fluorophenyl)-N-(2-hydroxy-2-methylpropyl)-3-oxo-6-[6-(trifluoromethyl)pyridin-3-yl]-2,3-dihydropyridazine-4-carboxamide] showed an IC50 (AHR [1]) of 110 nM and an IC50 (AHR [2]) of 73.2 nM.
C[C@@H](CO)NC(=O)c1cc(-c2ccc(C(F)(F)F)cn2)nn(-c2ccccc2)c1=O [Example 42, N-[(2S)-1-Hydroxypropan-2-yl]-3-oxo-2-phenyl-6-[5-(trifluoromethyl)pyridin-2-yl]-2,3-dihydropyridazine-4-carboxamide] gave an IC50 (AHR [2]) of 386 nM.
O=C(N[C@H]1CCC[C@@H]1O)c1cc(-c2ccc(C(F)(F)F)nc2)nn(-c2cccc(F)c2)c1=O [Example 6, 2-(3-Fluorophenyl)-N-[(1S,2S)-2-hydroxycyclopentyl]-3-oxo-6-[6-(trifluoromethyl)pyridin-3-yl]-2,3-dihydropyridazine-4-carboxamide] was tested, and the IC50 (AHR [1]) was 8.32 nM and the IC50 (AHR [2]) was 13.4 nM.
For Cc1ccc(-c2cc(C(=O)N[C@@H](C)CO)c(=O)n(-c3cccc(F)c3)n2)nc1 [Example 12, 2-(3-Fluorophenyl)-N-[(2S)-1-hydroxypropan-2-yl]-6-(5-methylpyridin-2-yl)-3-oxo-2,3-dihydropyridazine-4-carboxamide], the IC50 (AHR [2]) was 1080 nM.
